biological target: T1, Met kinase domain (GST fusion protein) (Homo sapiens, UniProt P08581); assay: Met transphosphorylation assay (ELISA, poly(glu-tyr) substrate); type: biochemical; details: read-out: Met IC50;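 also: Cell-free ELISA with plate-bound poly(Glu:Tyr 4:1) phosphorylated by GST-fused Met kinase domain plus ATP and Mn2+, phosphotyrosine detected by anti-phosphotyrosine antibody with HRP and ABTS read-out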
T1 construct: Purified GST fusion protein containing the Met kinase domain
T1 sequence (P08581 1078-1345 limits assumed): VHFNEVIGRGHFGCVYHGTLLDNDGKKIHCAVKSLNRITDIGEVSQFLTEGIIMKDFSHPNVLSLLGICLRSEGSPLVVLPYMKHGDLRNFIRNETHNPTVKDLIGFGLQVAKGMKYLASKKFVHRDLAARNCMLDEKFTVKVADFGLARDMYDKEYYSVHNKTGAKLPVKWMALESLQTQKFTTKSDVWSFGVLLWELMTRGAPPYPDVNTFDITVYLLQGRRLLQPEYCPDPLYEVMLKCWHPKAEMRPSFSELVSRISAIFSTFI

**Q.** For `CCN(CC)CCNC(=O)c1ccc(-c2cnc(N)c(OCc3c(Cl)cccc3Cl)c2)cc1` [Example I-36, 4-[6-Amino-5-(2,6-dichloro-benzyloxy)-pyridin-3-yl]-N-(2-diethylamino-ethyl)-benzamide], which IC50 is on record?
**A.** The IC50 was 990 nM.

**Q.** How did the IC50 turn out when `CCN(CC)CCCNC(=O)c1ccc(-c2cnc(N)c(OCc3c(Cl)cccc3Cl)c2)cc1` [Example I-37, 4-[6-Amino-5-(2,6-dichloro-benzyloxy)-pyridin-3-yl]-N-(3-diethylamino-propyl)-benzamide] was run?
**A.** Its IC50 is 820 nM.

**Q.** `CN1CCN(C(=O)c2ccc(-c3cnc(N)c(OCc4c(Cl)cccc4Cl)c3)cc2)CC1` [Example I-38, {4-[6-Amino-5-(2,6-dichloro-benzyloxy)-pyridin-3-yl]-phenyl}-(4-methyl-piperazin-1-yl)-methanone] was tested. Which IC50 did it give?
**A.** Its IC50 is 1020 nM.

**Q.** Which IC50 does the source give for `Nc1ncc(-c2ccc(C(=O)N3CCC(CCO)CC3)cc2)cc1OCc1c(Cl)cccc1Cl` [Example I-42, {4-(6-Amino-5-(2,6-dichloro-benzyloxy)-pyridin-3-yl]-phenyl}-[4-(2-hydroxy-ethyl)-piperidin-1-yl]-methanone] here?
**A.** The IC50 was 560 nM.

**Q.** For `CN(C)[C@H]1CCN(C(=O)c2ccc(-c3cnc(N)c(OCc4c(Cl)cccc4Cl)c3)cc2)C1` [Example I-43, {4-[6-Amino-5-(2,6-dichloro-benzyloxy)-pyridin-3-yl]-phenyl}-[(3S)-3-dimethylamino-pyrrolidin-1-yl]-methanone], which IC50 is on record?
**A.** Its IC50 is 470 nM.

**Q.** `CN(C)[C@@H]1CCN(C(=O)c2ccc(-c3cnc(N)c(OCc4c(Cl)cccc4Cl)c3)cc2)C1` [Example I-44, {4-[6-Amino-5-(2,6-dichloro-benzyloxy)-pyridin-3-yl]-phenyl}-[(3R)-3-dimethylamino-pyrrolidin-1-yl]-methanone] was tested. Which IC50 did it give?
**A.** The IC50 was 650 nM.

**Q.** For `Nc1ncc(-c2ccc(C(=O)NCC(O)CN3CCCC3)cc2)cc1OCc1c(Cl)cccc1Cl` (centres unmarked) [Example I-46, 4-[6-Amino-5-(2,6-dichloro-benzyloxy)-pyridin-3-yl]-N-(2-hydroxy-3-pyrrolidin-1-yl-propyl)-benzamide], which IC50 is on record?
**A.** Its IC50 is 200 nM.

**Q.** How did the IC50 turn out when `Nc1ncc(-c2ccc(C(=O)N3CCC[C@H]3CN3CCCC(F)C3)cc2)cc1OCc1c(Cl)cccc1Cl` (stereo partly drawn) [Example I-47, {4-[6-Amino-5-(2,6-dichloro-benzyloxy)-pyridin-3-yl]-phenyl}-[(2S)-2-(3-fluoro-piperidin-1-ylmethyl)-pyrrolidin-1-yl]-methanone] was run?
**A.** The IC50 was 420 nM.

**Q.** For `Nc1ncc(-c2ccc(C(=O)N3CCN(C4CC4)CC3)cc2)cc1OCc1c(Cl)cccc1Cl` [Example I-48, {4-[6-Amino-5-(2,6-dichloro-benzyloxy)-pyridin-3-yl]-phenyl}-(4-cyclopropyl-piperazin-1-yl)-methanone], which IC50 is on record?
**A.** The IC50 was 1670 nM.

**Q.** `Nc1ncc(-c2ccc(C(=O)N3CCC[C@@H]3CNCC3CC3)cc2)cc1OCc1c(Cl)cccc1Cl` [Example I-49, {4-[6-Amino-5-(2,6-dichloro-benzyloxy)-pyridin-3-yl]-phenyl}-{(2R)-2-[(cyclopropylmethyl-amino)-methyl]-pyrrolidin-1-yl}-methanone] was tested. Which IC50 did it give?
**A.** The IC50 was 370 nM.

**Q.** With `Nc1ncc(-c2ccc(C(=O)N(CC3CC3)C[C@H]3CCCN3)cc2)cc1OCc1c(Cl)cccc1Cl` [Example I-50, 4-[6-Amino-5-(2,6-dichloro-benzyloxy)-pyridin-3-yl]-N-cyclopropylmethyl-N-(2R)-pyrrolidin-2-ylmethyl-benzamide] as the molecule, how does the IC50 read?
**A.** The IC50 was 290 nM.

**Q.** How did the IC50 turn out when `CN(CC(O)CN1CCCC1)C(=O)c1ccc(-c2cnc(N)c(OCc3c(Cl)cccc3Cl)c2)cc1` (centres unmarked) [Example I-51, 4-[6-Amino-5-(2,6-dichloro-benzyloxy)-pyridin-3-yl]-N-(2-hydroxy-3-pyrrolidin-1-yl-propyl)-N-methyl-benzamide] was run?
**A.** The IC50 was 710 nM.

**Q.** How did the IC50 turn out when `Nc1ncc(-c2ccc(C(=O)N3CCC[C@H]3CN3CC[C@@H](O)C3)cc2)cc1OCc1c(Cl)cccc1Cl` [Example I-52, {4-[6-Amino-5-(2,6-dichloro-benzyloxy)-pyridin-3-yl]-phenyl}-{(2S)-2-[(3R)-3-hydroxy-pyrrolidin-1-ylmethyl]-pyrrolidin-1-yl}-methanone] was run?
**A.** Its IC50 is 530 nM.

**Q.** With `Nc1ncc(-c2cccc(C(=O)O)c2)cc1OCc1c(Cl)cccc1Cl` [Example I-53, 3-[6-Amino-5-(2,6-dichloro-benzyloxy)-pyridin-3-yl]-benzoic acid] as the molecule, how does the IC50 read?
**A.** The IC50 was 16000 nM.

**Q.** `Nc1ncc(-c2cccc(C(=O)N3CCC[C@@H]3CN3CCCC3)c2)cc1OCc1c(Cl)cccc1Cl` [Example I-54, {3-(6-Amino-5-(2,6-dichloro-benzyloxy)-pyridin-3-yl]-phenyl}-[(2R)-2-pyrrolidin-1-ylmethyl-pyrrolidin-1-yl]-methanone] was tested. Which IC50 did it give?
**A.** Its IC50 is 2500 nM.

**Q.** For `Nc1ncc(-c2ccc(OCC(=O)O)cc2)cc1OCc1c(Cl)cccc1Cl` [Example I-55, {4-[6-Amino-5-(2,6-dichloro-benzyloxy)-pyridin-3-yl]-phenoxy}-acetic acid], which IC50 is on record?
**A.** The IC50 was 2410 nM.

**Q.** `Nc1ncc(-c2ccc(OCC(=O)N3CCC[C@@H]3CN3CCCC3)cc2)cc1OCc1c(Cl)cccc1Cl` [Example I-56, 2-{4-[6-Amino-5-(2,6-dichloro-benzyloxy)-pyridin-3-yl]-phenoxy}-1-[(2R)-2-pyrrolidin-1-ylmethyl-pyrrolidin-1-yl]-ethanone] was tested. Which IC50 did it give?
**A.** The IC50 was 530 nM.

**Q.** For `Nc1ncc(-c2ccc(OCC(=O)N3CCC[C@H]3CN3CCCC3)cc2)cc1OCc1c(Cl)cccc1Cl` [Example I-57, 2-{4-[6-Amino-5-(2,6-dichloro-benzyloxy)-pyridin-3-yl]-phenoxy}-1-[(2S)-2-pyrrolidin-1-ylmethyl-pyrrolidin-1-yl]-ethanone], which IC50 is on record?
**A.** Its IC50 is 500 nM.

**Q.** With `Nc1ncc(-c2ccc3[nH]ccc3c2)cc1OCc1c(Cl)cccc1Cl` [Example I-58, 3-(2,6-Dichloro-benzyloxy)-5-(1H-indol-5-yl)-pyridin-2-ylamine] as the molecule, how does the IC50 read?
**A.** Its IC50 is 4300 nM.

**Q.** For `CN1CC=C(c2c[nH]c3ccc(-c4cnc(N)c(OCc5c(Cl)cccc5Cl)c4)cc23)CC1` [Example I-59, 3-(2,6-Dichloro-benzyloxy)-5-[3-(1-methyl-1,2,3,6-tetrahydro-pyridin-4-yl)-1H-indol-5-yl]-pyridin-2-ylamine], which IC50 is on record?
**A.** The IC50 was 1570 nM.

**Q.** With `CN1CCC(c2c[nH]c3ccc(-c4cnc(N)c(OCc5c(Cl)cccc5Cl)c4)cc23)CC1` [Example I-60, 3-(2,6-Dichloro-benzyloxy)-5-[3-(1-methyl-piperidin-4-yl)-1H-indol-5-yl]-pyridin-2-ylamine] as the molecule, how does the IC50 read?
**A.** The IC50 was 3040 nM.

**Q.** For `Nc1ncc(-c2ccc3[nH]cc(CN4CCOCC4)c3c2)cc1OCc1c(Cl)cccc1Cl` [Example I-61, 3-(2,6-Dichloro-benzyloxy)-5-(3-morpholin-4-ylmethyl-1H-indol-5-yl)-pyridin-2-ylamine], which IC50 is on record?
**A.** The IC50 was 1190 nM.

**Q.** For `Nc1ncc(-c2ccc3[nH]cc(CN4CCCCC4)c3c2)cc1OCc1c(Cl)cccc1Cl` [Example I-62, 3-(2,6-Dichloro-benzyloxy)-5-(3-piperidin-1-ylmethyl-1H-indol-5-yl)-pyridin-2-ylamine], which IC50 is on record?
**A.** The IC50 was 1410 nM.

**Q.** With `Nc1ncc(-c2ccc3[nH]cc(CN4CCCC4)c3c2)cc1OCc1c(Cl)cccc1Cl` [Example I-63, 3-(2,6-Dichloro-benzyloxy)-5-(3-pyrrolidin-1-ylmethyl-1H-indol-5-yl)-pyridin-2-ylamine] as the molecule, how does the IC50 read?
**A.** Its IC50 is 1340 nM.

**Q.** Which IC50 does the source give for `CCN(CC)Cc1c[nH]c2ccc(-c3cnc(N)c(OCc4c(Cl)cccc4Cl)c3)cc12` [Example I-64, 3-(2,6-Dichloro-benzyloxy)-5-(3-diethylaminomethyl-1H-indol-5-yl)-pyridin-2-ylamine] here?
**A.** The IC50 was 3230 nM.

**Q.** For `CC(C)(C)OC(=O)N[C@@H]1CCN(Cc2c[nH]c3ccc(-c4cnc(N)c(OCc5c(Cl)cccc5Cl)c4)cc23)C1` [Example I-65], which IC50 is on record?
**A.** Its IC50 is 6300 nM.
